The source of these data is US20250186623A1, “EXPRESSION SYSTEM FOR THE TREATMENT OF CANCER” (FUNDACION PARA LA INVESTIGACION MEDICA APLICADA, priority 2022, published 2025).

Structures are written as SMILES. Read-outs that look alike come from different tables or passages of the source.

The target in data set [1] is T1, murine STING (Mus musculus, UniProt Q3TBT3).
T1 sequence (Q3TBT3 1-378): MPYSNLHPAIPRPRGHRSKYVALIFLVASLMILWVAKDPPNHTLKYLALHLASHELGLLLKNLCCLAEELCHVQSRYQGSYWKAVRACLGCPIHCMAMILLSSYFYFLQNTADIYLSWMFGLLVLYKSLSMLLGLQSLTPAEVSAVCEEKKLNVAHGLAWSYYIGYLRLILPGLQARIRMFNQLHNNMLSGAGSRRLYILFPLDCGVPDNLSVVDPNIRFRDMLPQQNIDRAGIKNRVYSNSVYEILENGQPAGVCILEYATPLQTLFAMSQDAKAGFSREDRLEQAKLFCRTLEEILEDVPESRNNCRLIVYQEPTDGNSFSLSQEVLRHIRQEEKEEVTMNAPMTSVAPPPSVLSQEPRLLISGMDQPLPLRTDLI
Conditions: cited from earlier work.

In data set [2] the target is T2, hSTINGmut (Homo sapiens, UniProt Q86WV6, G230I/H232R/Q266I/S162A).
T2 construct: expressed in transfected cells
As to the kind of experiment: Time-course expression of STING-derived cytokines upon DMXAA treatment (qPCR). Conditions: MC38 and Hep2G cells encoding hSTINGmut; 50 μg/mL DMXAA; any given timepoint. The class given is cell-based. Here is the method: The objective of this experiment was to examine the time-course of STING-derived cytokine expression upon DMXAA treatment. As a readout, the expression of STING-derived cytokines was measured by qPCR.
To this end, stable cell lines of MC38 and Hep2G cells encoding hSTINGmut have been obtained as described above. […] Cells were harvested and prepared for qPCR measurements as described above.

In data set [3] the target is human STING (Homo sapiens, UniProt Q86WV6). To be noted: cited from earlier work.
Data set [4] concerns the target hSTING[R]-S162A/G230I/Q266I (Homo sapiens, UniProt Q86WV6, G230I/H232R/Q266I/S162A). To be noted: cited from earlier work.
Data set [5] concerns MC38 cells. Kind of data set: Synergism proof of principle II: IL-12 mRNA by qPCR. The class given is cell-based, murine. To be noted: cells transduced with AAV8-hSTINGmut plus AAV8-ISREx4-IL12miR122T. On the procedure:
To this end, MC38 cells received 8 Gy or 0 Gy as described above and then were co-transduced with AAV8-hSTINGmut (1×10^5 viral genomes/cell) and AAV8-ISREx4-IL12miR122T (0.5×10^5 viral genomes/cell) as described above. For cell transduction, 8.5×10^9 viral genomes of AAV8-hSTINGmut and 4.25×10^9 viral genomes of AAV8-scIL12-miR122T, from known concentration stock solutions, were resuspended, each one, in 50 μl RPMI 2% FBS. The resuspended viral particles were then added to the wells where the cells were seeded. […] The IL-12 mRNA was determined by qPCR as described above (example 3) and expression levels were quantified in reference to non-transduced, non-irradiated cells treated with vehicle.
A general note: Real-time PCR tracks product formation cycle by cycle.

For data set [6], the system named is native non-transduced MC38 cells. Kind of data set: Synergism proof of principle IV: IFN-β protein by ELISA. The class given is cell-based, murine. On the procedure:
In addition to the previous experiments, the objective of the fourth experiment was to further investigate the observed synergism between the canonical and non-canonical STING.
To this end, native non-transduced MC38 cells received 0 Gy, 2 Gy or 8 Gy as described above. […] The IFN-p protein levels were determined by ELISA as described above.
Background: In an ELISA, binding on a coated surface is turned into a signal by an enzyme label.

For data set [7] the following is noted: human, in vivo; cited from earlier work.
Data set [8] relates to MC38 cells. Kind of data set: Synergism proof of principle I: IFN-β mRNA by qPCR. The class given is cell-based, murine. Conditions: 8 Gy + DMXAA 50 μg/mL, without exogenic hSTINGmut. Here is the method: To this end, MC38 cells received 8 Gy or 0 Gy as described above (example 7). Cells were seeded thereafter at 750 cells/mm^2 density and were then either mock-transduced or transduced with AAV8-hSTINGmut (1×10^5 viral genomes/cell). For cell transduction 8.5×10^9 viral genomes of AAV8-hSTINGmut from known concentration stock solutions, were resuspended in 50 μl RPMI 2% FBS. The resuspended viral particles were then added to the wells where the cells were seeded.

The subject of data set [9] is MC38 tumors. Kind of data set: Synergism of DMXAA and radiotherapy in a humanized mouse model in vivo, cytokine ELISA. Also noted: species or system STING deficient C57 mice (STING KO). Conditions: 6 h after DMXAA 20 mg/kg, irradiated tumors.
Data set [10] addresses T2, hSTINGmut. As to the kind of experiment: DMXAA mediated expression of STING-derived cytokines (qPCR). The class given is cell-based. Conditions: hSTINGmut-transduced MC38 and Hep2G cells; 50 μg/mL DMXAA, 3 h or 6 h. Here is the method: (§1) As a readout, the expression of STING-derived cytokines was measured by qPCR.
(§2) To this end, MC38 and Hep2G cells have been transduced with lentiviruses encoding luciferase, hSTINGwt, hSTINGmut to obtain stable cell lines as described above or were not transduced with any lentivirus (no vector). Respective cells were seeded in 24-well plates at a density of 750 cells/mm^2 in growth medium. […] Cells were harvested and prepared for qPCR measurements as described above. The expression of the cytokines IFN-β, TNF-α, IL-6, CXCL9 and CXCL10 were measured for either experimental group and expression levels relative to controls (no vector) were quantified.

Data set [11] concerns the target T3, hSTINGwt (Homo sapiens, UniProt Q86WV6, H232R).
T3 construct: expressed in transfected cells
The description is as above. To be noted: other groups (hSTINGwt, luciferase, no vector); 50 μg/mL DMXAA. The class given is cell-based. On the procedure:
as §1, §2

Data set [12] relates to IFN-β protein levels in the serum. Here is the method:
C57 wild type mice, aged 6 to 10 weeks, were injected intravenously with an AAV8 vector encoding either hSTINGmut (AAV8-hSTINGmut, 1×10^11 viral genomes) or as a control GFP (AAV8-GFP, 1.5×10^11 viral genomes).

The test system of data set [13] is HEK293 cells. Kind of data set: Synergism proof of principle III: IFN-β and IL-12 mRNA by qPCR. The class given is cell-based, human. Conditions: for IFN-β expression levels: hSTINGmut expressing cells. The source says:
To this end, HEK293 cells received 8 Gy or 0 Gy as described above for MC38 cells and then were co-transduced with AAV8-hSTINGmut (1×10^5 viral genomes), AAV8-ISREx4-IL12miR122T (1×10^5 viral genomes) and/or AAV-GFP (1×10^5 viral genomes) as indicated in the figure.

T2 sequence (Q86WV6 whole entry S162A/G230I/H232R/Q266I): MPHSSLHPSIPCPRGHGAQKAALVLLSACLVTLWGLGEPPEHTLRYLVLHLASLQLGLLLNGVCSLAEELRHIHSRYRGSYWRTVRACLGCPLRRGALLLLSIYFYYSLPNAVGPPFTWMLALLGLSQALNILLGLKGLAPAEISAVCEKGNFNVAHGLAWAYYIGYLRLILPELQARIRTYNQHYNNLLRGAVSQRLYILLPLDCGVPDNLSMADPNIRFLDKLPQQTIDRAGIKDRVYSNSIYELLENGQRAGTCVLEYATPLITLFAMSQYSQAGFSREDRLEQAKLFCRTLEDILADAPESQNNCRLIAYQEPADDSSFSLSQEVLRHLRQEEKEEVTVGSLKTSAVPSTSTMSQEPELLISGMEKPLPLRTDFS
Sequence of hSTING[R]-S162A/G230I/Q266I (Q86WV6 whole entry S162A/G230I/H232R/Q266I, the tested form may be a part): as the sequence (Q86WV6 whole entry S162A/G230I/H232R/Q266I) above
Sequence of human STING (Q86WV6 whole entry H232R): as the sequence (Q86WV6 whole entry S162A/G230I/H232R/Q266I) above, with A162S, I230G, I266Q counted along it
T3 sequence (Q86WV6 whole entry H232R): as the sequence (Q86WV6 whole entry S162A/G230I/H232R/Q266I) above, with A162S, I230G, I266Q counted along it

Regarding `O=C(O)Cc1cccc2c(=O)cc(-c3ccccc3)oc12` [FAA, flavone-8-acetic acid], the “activation of murine STING” value in data set [1] is “may also be activated”.

For `Cc1ccc2c(=O)c3cccc(CC(=O)O)c3oc2c1C` [DMXAA, 5,6-Dimethylxanthenone-4-acetic acid], the “expression of STING-derived cytokines over time” value in data set [2] is “increase in expression levels”. For the same compound, the “activation of human STING” value in data set [3] was “unable to activate”. The “activation of hSTING[R]-S162A/G230I/Q266I” value in [4] was “highly activated”. In addition, the results for the “IL-12 mRNA levels” value in data set [5] (8 Gy) and in data set [5] (non-irradiated) were “strong elevation” and “slight elevation”, respectively. In data set [6] (8 Gy plus DMXAA (different doses), 24 h or 48 h), the IFN-β production entry is “exceeding the sum of those obtained with radiation alone and DMXAA alone”. In [6] (8 Gy, DMXAA 50 μg/mL 24 h later, collected after another 24 h), the “IFN-β production after a single dose of radiation” value is listed as “enhanced”. The “efficacy in clinical trials” value in [7] was “lack of efficacy”. Further, the “tolerability in clinical trials” value in data set [7] was “well tolerated and only displayed minor side effects”. Besides, the “IFN-β mRNA expression” value in data set [8] is recorded as “increase in IFN-β expression”. Moreover, the “intratumor levels of IL-12” value in data set [9] is listed as “increased significantly”. Further, the “expression of the cytokines IFN-β, TNF-α, IL-6, CXCL9 and CXCL10” value was “elevated” in data set [10] and “no significant alteration” in data set [11]. In addition, the “serum IFN-β levels in AAV8-GFP transduced control animals” value in [12] (20 mg DMXAA/kg bodyweight i.p., after a first injection) is “elevation”. In addition, the toxicity and mortality entry is “high toxicity and mortality” in data set [12] (20 mg DMXAA/kg, AAV8-hSTINGmut and AAV8-GFP mice, systemic STING stimulation); “neither cause significant toxicity nor mortality” in [12] (5 or 10 mg DMXAA/kg, AAV8-hSTINGmut transduced mice). For the same compound, in [12] (5 or 10 mg DMXAA/kg bodyweight i.p.), the “serum IFN-β levels in AAV8-hSTINGmut transduced mice” value was “very low levels”. Besides, the IL-12 expression levels entry in data set [13] (ISREx4-IL12miR122T expressing cells, radiation plus further DMXAA treatment) is on record as “significant increase”. Also, the IFN-β expression levels result in [13] (DMXAA 50 μg/mL) is on record as “upregulated”; in data set [13] (DMXAA plus additional irradiation 8 Gy), “significantly increased”.
